Results as given in patent US20250368700A1, “NOVEL PEPTIDE FOR TREATING AN INFECTIOUS DISEASE OR CONDITION” (OMNIX MEDICAL LTD., priority 2022, published 2025).
Values after ≈ are worked out from the molar mass of the structure shown. Read-outs that look alike come from different tables or passages of the source. Where a SMILES comes first, the peptide text is derived from it. Where no end group is shown, it is not given here. [ ]: non-standard residue; d: D form.

Assays:
[1] = biological target: Proteinase-K (ProtK) (Parengyodontium album, UniProt P06873); type: in vitro ADME; details: 2.5 μg protein, 2 hours at 37° C.
Protocol: Methods: Proteinase-K (ProtK) was used to assess the stability of OMN71 versus native OMN70 and Bovine Serum Albumin (BSA). 2.5 μg of each protein were incubated with increasing concentrations of 2.5 and 20 ng of ProtK as specified, for 2 hours at 37° C. Samples were boiled at 100° C. for five minutes and separated on 16.5% polyacrylamide gel. The gel was then stained with Coomassie Blue and excess dye was removed overnight.
Results: FIGS. 3A and 3B depict a Coomassie Blue stained gel detecting the following: FIG. 3A: Lanes 1, 2 and 3: […] of OMN70 subjected to 0/2.5/20 ng of Proteinase-K (ProtK), respectively. Lanes 4, 5 and 6: […] of OMN71 subjected to 0/2.5/20 ng of ProtK, respectively. FIG. 3B: Lanes 7, 8 and 9: […] of Bovine Serum Albumin (BSA) subjected to 0/2.5/20 ng of ProtK, respectively.

[2] = tested on: Klebsiella pneumoniae ATCC ® 700603 (Sens.); type: cell-based
From the text: (§1) As bacterial growth progresses, OD625 nm values raised.

[3] = tested on: Pseudomonas aeruginosa ATCC ® BAA-2797 (MDR); type: cell-based
From the text: as §1

[4] = tested on: Pseudomonas aeruginosa ATCC ® 27853 (Sens.); type: cell-based
From the text: as §1

[5] = tested on: Escherichia coli ATCC ® BAA-3048 (MDR); type: cell-based
From the text: as §1

[6] = tested on: Escherichia coli ATCC ® BAA-2452 (NDM-1); type: cell-based
From the text: as §1

[7] = tested on: Klebsiella pneumoniae ATCC ® BAA-2146 (NDM-1); type: cell-based
From the text: as §1

[8] = tested on: Escherichia coli ATCC ® 25922 (Sens.); type: cell-based
From the text: as §1

[9] = tested on: Pseudomonas aeruginosa ATCC ® BAA-2795 (MDR); type: cell-based
From the text: as §1

[10] = tested on: K. pneumoniae strain ATCC® 43816; experiment: Mouse lung infection model induced by K. pneumoniae, lung bacterial burden; type: in vivo; details: neutropenic CD-1 female mice, 100 mg/kg intranasal two hours post-infection, 24 hours
Protocol: Neutropenic CD-1 female mice were intratracheally inoculated with K. pneumoniae strain ATCC 43816 (75×10^3 CFU/mouse). Two hours post-inoculation, OMN71-treated group was administered by an intranasal injection of 100 mg/kg and the vehicle group was administered with 0.9% saline solution. Bacterial burden in the lungs was evaluated 24 hours post-infection. Control group of untreated mice n=2 (CTRL ▪), vehicle saline treated mice n=3 (vehicle ●), OMN71-treated group at 100 mg/kg n=3 (OMN71 100 mg/kg ▴).
Methods: Female CD-1 mice, weighing between 20-25 g were inoculated with K. pneumoniae bacteria to induce a lung infection. All animals were monitored during the entire period of the study and clinical signs were recorded. Briefly, eight animals were rendered neutropenic by two intraperitoneal injections of cyclophosphamide (Sigma-Aldrich, Italy) at 150 and 100 mg/kg, four and one day before the infection, respectively. […] The mice were anesthetized by IP injection of Ketamine-Xylazine at low dose and intratracheally inoculated with 50 μL of the bacterial suspension (75×10^3 CFU/mouse). Two hours post-infection (T2h), 100 mg/kg OMN71 in a total volume of 50 μl saline (0.9% NaCl) was administered intranasal. […] The mice were monitored during the entire study and scored for clinical signs of infection where no mortality or morbidity were observed.

[11] = tested on: K. pneumoniae strain ATCC® 43816; type: cell-based
[12] = tested on: Hsd:ICR (CD-1) mice; experiment: Safety of intra-nasal (IN) administration in mice (histopathology, mortality); type: in vivo; parameters: key to histopathological findings grade, Spleen / histopathological findings grade, Lungs / histopathological findings grade, Kidneys / histopathological findings grade, Heart / histopathological findings grade, Liver: Grade 0—The tissue appears normal, without any changes at all; Grade 1—Minimal pathological findings; Grade 2—Mild pathological findings; Grade 3—Moderate pathological findings; Grade 4—Severe pathological findings; details: 100 mg/kg IN
Protocol: Methods: Adverse effects of OMN71 on mice following intra-Nasal (IN) administration, safety was evaluated by tissue histopathology and mortality. 100 mg/kg of OMN71 in a total volume of 50 μl saline (0.9% NaCl) was administered intranasal (IN) to Hsd:ICR (CD-1) mice (20-25 g) in order to assess the presence any toxic effects. Control mice were administered with saline solution (0.9% NaCl) as vehicle. On the last time-point of each experiment (at T24h), mortality was assessed, the mice were sacrificed by IP injection of Ketamine-Xylazine and spleen, lungs, kidneys, heart and liver were collected for histopathology.
Slides of liver, heart, kidneys, lungs, and spleen were stained with Hematoxylin & Eosin (H&E) and were sent for evaluation. The H&E-stained slides were examined and pictures were taken using microscope equipped with a camera at objective magnification of ×4 and ×10.

Proteinase-K (ProtK), sequence (P06873 106-384, species assumed): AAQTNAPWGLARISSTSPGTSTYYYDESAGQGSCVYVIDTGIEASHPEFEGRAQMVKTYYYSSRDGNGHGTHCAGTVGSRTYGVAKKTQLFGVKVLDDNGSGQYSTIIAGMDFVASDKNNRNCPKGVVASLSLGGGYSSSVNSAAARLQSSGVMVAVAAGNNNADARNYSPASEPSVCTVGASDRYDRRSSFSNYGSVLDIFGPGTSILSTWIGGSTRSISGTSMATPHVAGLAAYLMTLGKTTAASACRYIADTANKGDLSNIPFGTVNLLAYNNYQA

Row | Molecule | degradation by ProtK (gel band) ([1]; 2.5 ng ProtK) | degradation by ProtK (gel band) ([1]; 20 ng ProtK) | MIC values [2] [µg/mL] | MIC values [3] [µg/mL] | MIC values [4] [µg/mL] | MIC values [5] [µg/mL] | MIC values [6] [µg/mL] | MIC values [7] [µg/mL] | MIC values [8] [µg/mL] | MIC values [9] [µg/mL] | bacterial burden reduction compared to the vehicle-treated group [10] [log CFU/lungs] | MIC [11] [µg/mL] | histopathological findings grade, Heart ([12]; T24 h) | histopathological findings grade, Kidneys ([12]; T24 h) | histopathological findings grade, Liver ([12]; T24 h) | histopathological findings grade, Lungs ([12]; T24 h) | histopathological findings grade, Spleen ([12]; T24 h) | mortality ([12]; at T24h) | mortality or other adverse effects ([12]; monitored for an additional week)
1 | Bovine Serum Albumin [BSA] | partially degrade | completely degrade |  |  |  |  |  |  |  |  |  |  |  |  |  |  |  |  | 
2 | CC(C)C[C@@H](NC(=O)[C@H](N)CC(N)=O)C(=O)N[C@H](CC(C)C)C(=O)N[C@H](CO)C(=O)N[C@H](CCCCN)C(=O)N[C@H](CC(C)C)C(=O)N[C@H](CCCNC(=N)N)C(=O)N[C@H](CCCCN)C(=O)NCC(=O)N[C@H](C)C(=O)N[C@@H](C(=O)N[C@H](CCCCN)C(=O)N[C@H](C)C(=O)N[C@H](Cc1ccccc1)C(=O)N[C@H](CC(N)=O)C(=O)N[C@H](CCCCN)C(=O)N[C@H](CC(C)C)C(=O)N[C@H](C)C(=O)N[C@H](CC(N)=O)C(=O)N[C@H](CC(C)C)C(=O)N[C@H](Cc1ccccc1)C(N)=O)[C@H](C)O [OMN72] |  |  | 16 (≈ 6.82 µM) | 64 (≈ 27.3 µM) | 64 (≈ 27.3 µM) | 32 (≈ 13.6 µM) | 32 (≈ 13.6 µM) | 32 (≈ 13.6 µM) | 32 (≈ 13.6 µM) | 16 (≈ 6.82 µM) |  |  |  |  |  |  |  |  | 
3 | CC(C)C[C@@H](NC(=O)[C@H](N)Cc1ccccc1)C(=O)N[C@H](CC(N)=O)C(=O)N[C@H](C)C(=O)N[C@H](CC(C)C)C(=O)N[C@H](CCCCN)C(=O)N[C@H](CC(N)=O)C(=O)N[C@H](Cc1ccccc1)C(=O)N[C@H](C)C(=O)N[C@H](CCCCN)C(=O)N[C@@H](C(=O)N[C@H](C)C(=O)NCC(=O)N[C@H](CCCCN)C(=O)N[C@H](CCCNC(=N)N)C(=O)N[C@H](CC(C)C)C(=O)N[C@H](CCCCN)C(=O)N[C@H](CO)C(=O)N[C@H](CC(C)C)C(=O)N[C@H](CC(C)C)C(=O)N[C@H](CC(N)=O)C(N)=O)[C@H](C)O [OMN71] (H-[dF][dL][dN][dA][dL][dK][dN][dF][dA][dK][dT][dA]G[dK][dR][dL][dK][dS][dL][dL][dN]-NH2; N-terminus assumed) |  |  | 8 (≈ 3.41 µM) | 16 (≈ 6.82 µM) | 16 (≈ 6.82 µM) | 4 (≈ 1.7 µM) | 4 (≈ 1.7 µM) | 16 (≈ 6.82 µM) | 4 (≈ 1.7 µM) | 4 (≈ 1.7 µM) | ~1 | 4 (≈ 1.7 µM) | 0 | 0 | 0 | 0 | 0 | No mortality | no mortality or any other adverse effects
4 | FLNALKNFAKTAGKRLKSLLN-NH2 [OMN70, Cyanophlyctin, reference compound] |  |  | 8 | 16 | 16 | 16 | 8 | 16 | 4 | 8 |  |  |  |  |  |  |  |  | 
